Source: patent EP0678516B1, “Preparation of 2-bromo-5-(2-bromo-2-nitrovinyl)-furan and its use as microcide” (CENTRO DE BIOACTIVOS QUIMICOS DE LA UNIVERSIDAD CENTRAL DE …, priority 1994, dated 1995)

Legend:
[1] = system: Bovine infectious queratoconjunctivitis; test: Clinical test, external treatment of eye infections in animals; type: in vivo; conditions: Cows (PE), small scale controlled clinical test
Text: (§1) The effectiveness of the active principle against bacterial eye diseases in: 9435 animal eyes affected with queratoconjunctivitis; 8093 of cattle and 1342 of other species (sheep, rabbits, dogs, horses, pigs, cats, guinea-pigs and birds).
(§2) In some cases the result of the medicament was compared with others habitually used for these treatments.
(§3) Read: 1 = Bovine infectious queratoconjunctivitis (PE) = small scale or clinical test in conditions controlled on a small scale (U) = ointment (I) = injectable n = number of eyes treated P± = Average of treatment for clinical recuperation (weighted average) Rc = clinical recuperation 2 = conjunctivitis 3 = Querratitis 4= Queratoconjunctivitis 5= Blefaritis 6= general eye infection 7= clinical extension or test compared in conditions of extension (*) = Massive application in therapeutic survey in the new different animal species (G-1) = refers to 2-bromo-5-(2-bromo-2-nitro-vinyl)-furan

[2] = system: septic puerperal metritis; test: Treatment of septic puerperal metritis; type: in vivo, female oxes; conditions: G-1 1.5% oil solution intrauterine, Tetracycline abdominal aorta route
Method: The treatment consisted in applying 40 ml for three consecutive days at intervals of 24 hours from the diagnosis of the disease process. Treatment was compared with intrasoric tetracyclin.

[3] = system: Streptococcus agalactiae and Staphylococcus aureus; test: Intracisternal treatment of clinical mastitis; type: in vivo, femal oxes
Text: The active principle in a concentration of 0.1 % is applied by intracisternal route daily for three consecutive days in femal oxes clinically affected by mastitis of morbid catarrh purulen course types, in which the isolated micro-organisms were Streptococcus agalactiae and Staphylococcus aureus. As a control medicament the mammary infusion of neomicine was used.

[4] = system: conjunctivitis, Querratitis, Queratoconjunctivitis; test: Clinical test, external treatment of eye infections in animals; type: in vivo; conditions: Dogs
Text: as §1, §2, §3

[5] = system: conjunctivitis and Blefaritis; test: as above; type: in vivo; conditions: Rabbits
Text: as §1, §2, §3

[6] = system: Bovine infectious queratoconjunctivitis; test: Clinical test, external treatment of eye infections in animals (extension); type: in vivo; conditions: Cattle (E)
Text: as §1, §2, §3

O=C(N[C@H](CO)[C@H](O)c1ccc([N+](=O)[O-])cc1)C(Cl)Cl [Chloran-fenicol-(I), Chloran-fenicol]
P± (Average of treatment for clinical recuperation, weighted average) [1]: 3.1ab
Re (clinical recuperation) [1]: 80.6ba %

CN(C)[C@@H]1C(O)=C(C(N)=O)C(=O)[C@@]2(O)C(O)=C3C(=O)c4c(O)cccc4[C@@](C)(O)[C@H]3C[C@@H]12 [Tetracycline, reference compound]
Recuperated n ([2]; 27 females, 19 females): 13
IIA (Artificial insemination index) [2]: 1.78± 1.99b
Recuperated % [2]: 68.4%
T-R (Average of treatment interval of clinical recuperation) [2]: 39 days
IIA (Artificial insemination index) ([2]; listed as tetracycline): 1.78 ± 1.99

neomicine [reference compound]
Recuperated n (affected parts) ([3]; G-I 0.1% intracisternal daily for three days (57 parts), neomicine mammary infusion (12 parts)): 12
Recuperated % (clinical recuperation of the affected parts) ([3]; G-I 0.1% intracisternal daily for three days, neomicine mammary infusion): 100%

O=C(N[C@H](CO)[C@H](O)c1ccc([N+](=O)[O-])cc1)C(Cl)Cl [Chloran-fenicol-(U), Chloran-fenicol]
P± (Average of treatment for clinical recuperation, weighted average) [4]: 7.3b
Re (clinical recuperation) [4]: 81.5a %
P± (Average of treatment for clinical recuperation, weighted average) [5]: 3.2a
P± (Average of treatment for clinical recuperation, weighted average) [6]: 3.4a
Re (clinical recuperation) [6]: 86.6a %
